Measured values taken from patent US9295651B2, “Nanoconjugates and nanoconjugate formulations” (priority 2009, dated 2016).

Columns and labels:
[1] = Lyophilization of PLGA-mPEG NPs in the presence of lyoprotectants, reconstitution with water, DLS; type: physicochemical; parameters: key to Aggr. (visible large aggregates): Y = aggregates observed; N = no aggregates observed; conditions: for Size in nm: PLGA-mPEG NPs lyophilized and reconstituted; for prevention of NP aggregation during lyophilization (in words): PLGA-mPEG5k NPs, lyoprotectant/NP mass ratio up to 10
Procedure: Lyophilization of PLGA-mPEG NPs in the presence of lyoprotectants. An acetone solution of PLGA-mPEG (5 mg/mL, 100 μL) was added dropwise into a vigorously stirred water solution (4 mL) containing the NCs to make the PLGA-mPEG NPs. A lyoprotectant was added to the vigorously stirred NC solution at the selected lyoprotectant/NC mass ratio (varying from 2 to 20). The solution was then lyophilized, reconstituted with 2 mL water and stirred for 5 minutes. The sizes of the resulting NCs were analyzed by DLS.

LLC tumors = assay: Tumor prevention/inhibition study, LLC cells co-injected subcutaneously with test article; type: in vivo, C57B1/6 female mice; conditions: at 25 days, 5 mg/kg in 1:1 Cremophor EL/ethanol
Procedure: To access the ability of paclitaxel-loaded nanoparticles to inhibit establishment of lung cancer in an in vivo model mimicking microscopic disease that can remain when the surgical margin is close to the tumor, Ptxl-PLA NCs were evaluated in a rapidly growing subcutaneous tumor model. Specifically, the ability of Ptxl-PLA NCs to prevent establishment of rapidly growing LLC tumors in C57B1/6 female mice compared to Ptxl alone (in a clinical formulation) and controls without any drugs was assessed. In these experiments, 1,000,000 LLC tumor cells plus Ptxl-LA25/PLGA-mPEG nanoparticles containing a total dose of 5 or 50 mg/kg incorporated Ptxl were injected subcutaneously into the flank of a mouse. Other groups received the injection of 1,000,000 LLC cells alone or LLC cells mixed with Ptxl solubilized with 1:1 Cremophor EL/ethanol as used clinically at 5 mg/kg dosage.

SMILES | Size in nm ([1]; lyoprotectant/NP mass ratio 2) [nm] | Size in nm ([1]; lyoprotectant/NP mass ratio 10) [nm] | Aggr. (visible large aggregates) ([1]; lyoprotectant/NP mass ratio 2) | Aggr. (visible large aggregates) ([1]; lyoprotectant/NP mass ratio 10) | Distr. No. (number of particle size distributions) ([1]; lyoprotectant/NP mass ratio 10) | PDI ([1]; lyoprotectant/NP mass ratio 10) | SL/SO (ratio of lyophilized NP size to pre-lyophilized NP size) ([1]; lyoprotectant/NP mass ratio 10) | prevention of NP aggregation during lyophilization (in words) [1] | Distr. No. (number of particle size distributions) ([1]; lyoprotectant/NP mass ratio 2) | PDI ([1]; lyoprotectant/NP mass ratio 2) | SL/SO (ratio of lyophilized NP size to pre-lyophilized NP size) ([1]; lyoprotectant/NP mass ratio 2) | tumors at injection site (LLC tumors)
CCCCCCCCCCCCOS(=O)(=O)[O-].[Na+] [SDS, sodium dodecyl sulfate] |  | >1000 |  | Y |  |  |  | unable to prevent NP aggregation |  |  |  | 
OC[C@@H](O)[C@@H](O)[C@H](O)[C@@H](O)CO [Sorbitol] | >1000 | 764.8 | Y | Y | 2 | 0.299 | 12.28 |  |  |  |  | 
OC[C@H]1O[C@@](CO)(O[C@H]2O[C@H](CO)[C@@H](O)[C@H](O)[C@H]2O)[C@@H](O)[C@@H]1O [Sucrose] | 245.2 | 217.5 | Y | Y | 2 | 0.220 | 3.49 |  | 2 | 0.227 | 3.93 | 
CC(=O)O[C@H]1C(=O)[C@@]2(C)[C@H]([C@H](OC(=O)c3ccccc3)[C@]3(O)C[C@H](OC(=O)[C@H](O)[C@@H](NC(=O)c4ccccc4)c4ccccc4)C(C)=C1C3(C)C)[C@]1(OC(C)=O)CO[C@@H]1C[C@@H]2O [paclitaxel] |  |  |  |  |  |  |  |  |  |  |  | large tumors were noted

Second part, led by results:

Size in nm ([1]; lyoprotectant/NP mass ratio 2) [nm] | Size in nm ([1]; lyoprotectant/NP mass ratio 10) [nm] | Aggr. (visible large aggregates) ([1]; lyoprotectant/NP mass ratio 2) | Aggr. (visible large aggregates) ([1]; lyoprotectant/NP mass ratio 10) | Distr. No. (number of particle size distributions) ([1]; lyoprotectant/NP mass ratio 10) | PDI ([1]; lyoprotectant/NP mass ratio 10) | SL/SO (ratio of lyophilized NP size to pre-lyophilized NP size) ([1]; lyoprotectant/NP mass ratio 10) | prevention of NP aggregation during lyophilization (in words) [1] | Distr. No. (number of particle size distributions) ([1]; lyoprotectant/NP mass ratio 2) | PDI ([1]; lyoprotectant/NP mass ratio 2) | SL/SO (ratio of lyophilized NP size to pre-lyophilized NP size) ([1]; lyoprotectant/NP mass ratio 2) | SMILES | tumors at injection site (LLC tumors)
>1000 | 220.4 | Y | Y | 2 | 0.288 | 3.54 |  |  |  |  | OC[C@H]1O[C@H](O[C@H]2[C@H](O)[C@@H](O)C(O)O[C@@H]2CO)[C@H](O)[C@@H](O)[C@@H]1O (mixture of isomers) [Maltose] | 
 | >1000 |  | Y |  |  |  | could not prevent NP aggregation at all |  |  |  | O=C[C@H](O)[C@@H](O)[C@@H](O)[C@H](O)CO [Galactose] | 
 | >1000 |  | Y |  |  |  | unable to prevent NP aggregation |  |  |  | NCC(=O)O [Glycine] | 
